Reference: US20220009920A1 (GB005, Inc., priority 2020, published 2022)
Read-outs that look alike come from different tables or passages of the source.

Legend:
MYO3B = target: T1, MYO3B (Homo sapiens, UniProt Q8WXR4); experiment: Large panel kinase profiling; format: biochemical; conditions: 1 μM test article, 1 mM ATP
T1 construct: AssayQuant Technologies, Inc. (assay service)
T1 sequence (Q8WXR4 1-1341): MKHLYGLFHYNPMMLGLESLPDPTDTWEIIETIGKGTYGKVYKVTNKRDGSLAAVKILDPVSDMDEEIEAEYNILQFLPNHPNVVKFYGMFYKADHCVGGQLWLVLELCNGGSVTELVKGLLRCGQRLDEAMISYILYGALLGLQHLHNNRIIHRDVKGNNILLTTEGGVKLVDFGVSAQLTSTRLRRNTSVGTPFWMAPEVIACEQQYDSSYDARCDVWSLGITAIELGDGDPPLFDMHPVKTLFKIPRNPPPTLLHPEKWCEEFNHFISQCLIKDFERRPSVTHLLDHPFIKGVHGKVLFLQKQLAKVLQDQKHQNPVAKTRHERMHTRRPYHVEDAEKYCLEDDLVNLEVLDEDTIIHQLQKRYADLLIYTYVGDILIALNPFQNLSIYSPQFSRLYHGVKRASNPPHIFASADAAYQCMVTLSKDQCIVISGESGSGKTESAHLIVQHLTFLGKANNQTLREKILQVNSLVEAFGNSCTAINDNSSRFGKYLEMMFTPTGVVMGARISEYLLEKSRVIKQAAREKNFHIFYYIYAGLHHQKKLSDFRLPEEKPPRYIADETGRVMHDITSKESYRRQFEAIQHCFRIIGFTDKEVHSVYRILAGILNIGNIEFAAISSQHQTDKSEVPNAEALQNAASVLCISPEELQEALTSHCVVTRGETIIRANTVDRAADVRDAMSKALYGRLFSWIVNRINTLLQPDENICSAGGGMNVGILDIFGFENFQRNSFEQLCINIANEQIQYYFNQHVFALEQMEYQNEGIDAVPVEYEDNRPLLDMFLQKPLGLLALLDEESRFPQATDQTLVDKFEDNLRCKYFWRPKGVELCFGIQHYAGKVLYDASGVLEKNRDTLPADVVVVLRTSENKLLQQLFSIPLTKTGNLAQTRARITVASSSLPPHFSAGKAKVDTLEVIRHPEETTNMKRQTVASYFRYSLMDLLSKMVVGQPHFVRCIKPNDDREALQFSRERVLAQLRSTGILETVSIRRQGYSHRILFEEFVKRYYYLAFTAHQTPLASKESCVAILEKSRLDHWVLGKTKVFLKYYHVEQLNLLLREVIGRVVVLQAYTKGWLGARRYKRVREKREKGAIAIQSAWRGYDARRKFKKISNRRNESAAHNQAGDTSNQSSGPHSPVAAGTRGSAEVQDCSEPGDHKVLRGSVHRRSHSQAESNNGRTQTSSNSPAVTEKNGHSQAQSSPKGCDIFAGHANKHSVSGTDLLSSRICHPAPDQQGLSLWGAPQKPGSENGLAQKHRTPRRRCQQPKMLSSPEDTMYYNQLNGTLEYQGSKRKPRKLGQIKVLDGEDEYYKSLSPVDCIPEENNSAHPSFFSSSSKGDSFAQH
Description: (§1) Large panel kinase profiling was performed at AssayQuant Technologies, Inc. 260 Cedar Hill Street, Marlborough, Mass. 01752 using the PhosphoSens® CSox-Sensor platform using 1 μM test article concentration and 1 mM ATP concentration (www.assayquant.com). Reactions were run in Corning, half-area 96-well, white flat round bottom polystyrene NBS microplates (Cat. #3642) after sealing using optically-clear adhesive film (TopSealA-Plus plate seal, PerkinElmer), applied with either a roller or a paddle to eliminate evaporation and resulting drift. The standard total reaction volume was 50 μL. All experiments were ran at 30° C. to control for fluctuations in ambient temperature. Plates were read from the top in kinetic mode (readings taken every 1 min), monitoring fluorescence intensity with filters using Ex 360 nm and Em 485 nm and a band width of 40 and 20 nm, respectively, and a gain of 80. Data analysis was performed using either Graphpad Prism or Gene Data Screener software.

YES = target: T2, YES (Homo sapiens, UniProt P07947); experiment: Large panel kinase profiling; format: biochemical; conditions: 1 μM test article, 1 mM ATP
T2 construct: AssayQuant Technologies, Inc. (contract laboratory that ran the panel)
T2 sequence (P07947 whole entry, species assumed): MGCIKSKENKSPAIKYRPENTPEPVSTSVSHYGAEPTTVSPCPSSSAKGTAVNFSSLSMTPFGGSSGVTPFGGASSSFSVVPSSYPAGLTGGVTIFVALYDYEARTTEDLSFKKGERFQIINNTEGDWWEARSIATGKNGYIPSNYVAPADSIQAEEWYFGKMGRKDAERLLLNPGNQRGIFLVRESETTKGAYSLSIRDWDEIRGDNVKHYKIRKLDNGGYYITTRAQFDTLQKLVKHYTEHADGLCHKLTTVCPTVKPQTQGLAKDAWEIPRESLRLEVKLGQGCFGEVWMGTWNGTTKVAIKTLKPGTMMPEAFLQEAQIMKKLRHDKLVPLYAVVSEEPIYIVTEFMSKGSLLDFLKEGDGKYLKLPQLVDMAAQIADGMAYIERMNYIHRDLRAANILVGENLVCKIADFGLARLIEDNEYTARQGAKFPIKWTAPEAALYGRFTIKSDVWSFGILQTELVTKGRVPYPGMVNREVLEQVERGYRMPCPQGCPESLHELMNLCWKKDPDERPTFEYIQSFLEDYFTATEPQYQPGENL
Description: as §1

CHEK1/CHK1 = target: T3, CHEK1/CHK1 (Homo sapiens, UniProt O14757); experiment: Large panel kinase profiling; format: biochemical; conditions: 1 μM test article, 1 mM ATP
T3 construct: AssayQuant Technologies, Inc. (ran the panel)
T3 sequence (O14757 1-476): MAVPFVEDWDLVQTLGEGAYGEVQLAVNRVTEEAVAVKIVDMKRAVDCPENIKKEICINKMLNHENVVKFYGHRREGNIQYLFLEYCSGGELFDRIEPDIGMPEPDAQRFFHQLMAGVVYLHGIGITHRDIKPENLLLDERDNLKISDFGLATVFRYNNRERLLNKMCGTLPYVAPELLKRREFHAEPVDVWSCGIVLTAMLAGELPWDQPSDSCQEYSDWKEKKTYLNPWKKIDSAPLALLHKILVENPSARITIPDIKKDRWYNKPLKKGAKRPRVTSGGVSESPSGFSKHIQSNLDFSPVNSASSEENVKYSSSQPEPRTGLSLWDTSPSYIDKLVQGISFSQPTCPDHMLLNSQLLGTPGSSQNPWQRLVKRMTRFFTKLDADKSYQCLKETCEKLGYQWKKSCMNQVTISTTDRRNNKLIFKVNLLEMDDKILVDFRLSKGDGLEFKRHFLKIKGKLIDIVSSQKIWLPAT
Description: as §1

CDC42BPB/MRCKB = target: T4, CDC42BPB/MRCKB (Homo sapiens, UniProt Q9Y5S2); experiment: Large panel kinase profiling; format: biochemical; conditions: 1 μM test article, 1 mM ATP
T4 construct: AssayQuant Technologies, Inc. (ran the panel)
T4 sequence (Q9Y5S2 whole entry): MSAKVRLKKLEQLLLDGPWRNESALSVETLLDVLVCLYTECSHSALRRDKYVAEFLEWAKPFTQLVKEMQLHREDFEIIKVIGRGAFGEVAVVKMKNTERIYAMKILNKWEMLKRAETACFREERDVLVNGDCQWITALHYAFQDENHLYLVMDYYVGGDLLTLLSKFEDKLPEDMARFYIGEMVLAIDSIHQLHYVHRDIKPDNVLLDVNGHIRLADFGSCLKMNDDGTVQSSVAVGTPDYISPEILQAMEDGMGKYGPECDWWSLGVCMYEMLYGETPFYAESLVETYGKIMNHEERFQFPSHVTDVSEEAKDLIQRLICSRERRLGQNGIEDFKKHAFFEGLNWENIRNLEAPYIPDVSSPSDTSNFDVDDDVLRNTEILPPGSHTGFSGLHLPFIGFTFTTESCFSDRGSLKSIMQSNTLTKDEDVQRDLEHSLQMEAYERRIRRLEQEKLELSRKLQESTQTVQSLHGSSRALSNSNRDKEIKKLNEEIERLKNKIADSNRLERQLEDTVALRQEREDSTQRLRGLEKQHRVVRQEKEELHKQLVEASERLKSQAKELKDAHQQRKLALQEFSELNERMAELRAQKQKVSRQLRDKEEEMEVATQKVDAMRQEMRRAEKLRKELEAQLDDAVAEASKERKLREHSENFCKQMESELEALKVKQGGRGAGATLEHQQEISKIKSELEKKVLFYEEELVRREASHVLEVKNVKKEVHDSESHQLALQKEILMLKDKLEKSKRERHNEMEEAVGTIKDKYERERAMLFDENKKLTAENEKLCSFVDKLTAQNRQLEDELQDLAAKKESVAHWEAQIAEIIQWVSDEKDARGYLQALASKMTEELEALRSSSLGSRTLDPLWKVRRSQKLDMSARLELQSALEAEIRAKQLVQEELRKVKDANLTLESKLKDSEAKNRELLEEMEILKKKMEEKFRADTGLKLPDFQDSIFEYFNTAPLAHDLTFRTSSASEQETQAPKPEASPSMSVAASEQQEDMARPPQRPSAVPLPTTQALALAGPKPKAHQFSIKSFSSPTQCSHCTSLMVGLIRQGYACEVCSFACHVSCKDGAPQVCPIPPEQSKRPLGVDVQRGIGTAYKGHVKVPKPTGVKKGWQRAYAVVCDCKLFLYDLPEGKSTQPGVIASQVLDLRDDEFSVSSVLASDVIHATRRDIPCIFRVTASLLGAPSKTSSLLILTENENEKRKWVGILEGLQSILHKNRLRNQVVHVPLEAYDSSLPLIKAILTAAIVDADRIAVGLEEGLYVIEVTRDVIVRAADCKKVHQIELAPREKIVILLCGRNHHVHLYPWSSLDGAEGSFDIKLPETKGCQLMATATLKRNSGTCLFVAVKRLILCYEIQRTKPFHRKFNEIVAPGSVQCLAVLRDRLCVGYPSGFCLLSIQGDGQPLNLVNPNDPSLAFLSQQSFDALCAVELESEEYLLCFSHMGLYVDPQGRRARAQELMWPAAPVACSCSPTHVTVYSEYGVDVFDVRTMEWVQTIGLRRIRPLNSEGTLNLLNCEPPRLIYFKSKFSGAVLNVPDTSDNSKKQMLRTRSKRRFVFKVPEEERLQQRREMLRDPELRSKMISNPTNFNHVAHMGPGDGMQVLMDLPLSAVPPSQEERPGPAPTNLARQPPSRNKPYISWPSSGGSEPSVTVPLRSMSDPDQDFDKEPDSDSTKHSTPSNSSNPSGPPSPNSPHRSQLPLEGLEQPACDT
Description: as §1

DAPK3 = target: T5, DAPK3 (Homo sapiens, UniProt O43293); experiment: Large panel kinase profiling; format: biochemical; conditions: 1 μM test article, 1 mM ATP
T5 construct: AssayQuant Technologies, Inc. (service laboratory)
T5 sequence (O43293 whole entry, species assumed): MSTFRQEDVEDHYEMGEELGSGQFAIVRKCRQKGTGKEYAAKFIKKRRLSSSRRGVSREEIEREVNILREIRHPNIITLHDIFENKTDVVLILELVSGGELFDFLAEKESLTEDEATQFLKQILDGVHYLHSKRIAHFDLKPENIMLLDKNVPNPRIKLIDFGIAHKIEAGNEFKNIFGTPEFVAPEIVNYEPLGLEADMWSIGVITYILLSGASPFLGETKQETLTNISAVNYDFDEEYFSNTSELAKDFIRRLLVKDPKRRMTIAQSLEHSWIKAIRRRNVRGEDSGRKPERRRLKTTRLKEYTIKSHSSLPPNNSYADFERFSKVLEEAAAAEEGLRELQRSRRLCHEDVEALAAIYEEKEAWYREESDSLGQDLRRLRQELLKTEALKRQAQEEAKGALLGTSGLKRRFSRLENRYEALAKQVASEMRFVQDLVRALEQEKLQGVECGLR
Description: as §1

MAP3K14 = MAP3K14 (Homo sapiens, UniProt Q99558); experiment: Large panel kinase profiling; format: biochemical; conditions: 1 μM test article, 1 mM ATP
Sequence of MAP3K14 (Q99558 whole entry, species assumed): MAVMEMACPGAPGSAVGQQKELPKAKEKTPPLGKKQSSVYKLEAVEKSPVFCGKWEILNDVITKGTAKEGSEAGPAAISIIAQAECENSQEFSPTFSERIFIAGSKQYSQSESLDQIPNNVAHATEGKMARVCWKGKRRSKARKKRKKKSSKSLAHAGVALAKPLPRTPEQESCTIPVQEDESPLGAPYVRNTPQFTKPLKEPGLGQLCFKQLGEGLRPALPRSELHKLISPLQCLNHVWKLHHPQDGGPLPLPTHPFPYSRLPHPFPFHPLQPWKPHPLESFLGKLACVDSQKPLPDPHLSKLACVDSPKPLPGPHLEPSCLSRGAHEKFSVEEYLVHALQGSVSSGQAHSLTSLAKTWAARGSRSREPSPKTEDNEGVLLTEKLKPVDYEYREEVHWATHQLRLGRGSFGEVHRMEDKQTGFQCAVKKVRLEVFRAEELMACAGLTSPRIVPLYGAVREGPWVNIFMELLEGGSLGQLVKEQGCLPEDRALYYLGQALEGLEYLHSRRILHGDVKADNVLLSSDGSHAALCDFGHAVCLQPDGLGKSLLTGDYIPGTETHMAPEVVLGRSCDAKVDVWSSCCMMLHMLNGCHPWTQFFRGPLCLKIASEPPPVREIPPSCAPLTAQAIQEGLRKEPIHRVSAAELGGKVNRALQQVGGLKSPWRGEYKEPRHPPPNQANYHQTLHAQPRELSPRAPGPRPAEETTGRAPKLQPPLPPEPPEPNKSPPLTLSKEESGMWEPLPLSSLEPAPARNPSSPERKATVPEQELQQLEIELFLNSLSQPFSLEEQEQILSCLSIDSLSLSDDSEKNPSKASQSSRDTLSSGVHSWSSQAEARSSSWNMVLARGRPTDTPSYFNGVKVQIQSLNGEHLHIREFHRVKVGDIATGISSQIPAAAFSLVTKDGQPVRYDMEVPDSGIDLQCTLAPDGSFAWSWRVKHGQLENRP
Description: as §1

[1] = Plasma and total brain concentrations at 1 h post single oral administration to female C57BL/6 mice; format: in vivo; conditions: mouse, 10 mg/kg oral gavage; for Kp at 1 h: brain/plasma, read-out: brain to plasma ratio
Description: The appropriate amount of test article was dissolved 10% dimethylacetamide (DMA)/90% (20% hydroxypropyl-β-cyclodextrin (HP-B-CD) w/v in water to obtain a final concentration of 1 mg/mL for oral dosing. Sonication, vortex, and homogenization was used as needed. Three female C57BL/6 mice aged 7-9 weeks (20-30 grams) were dosed by oral gavage 10 mg/kg solution of the test article.
Concentrations of test compounds in the plasma and brain samples (use plasma and brain homogenate standard curve for all samples appropriately) were analyzed using LC-MS/MS. Compounds having a brain-to-plasma ratio of greater than 0.2 were considered brain penetrant.

[2] = plasma, read-out: Mean [plasma]

C=CC(=O)N1CCCC(c2c(F)cc(C(N)=O)c3[nH]c4c(c23)CCCCC4)C1 (single isomer, unassigned) [Compound 5-6]
inhibition at 1 µM (MYO3B): -36.2% | inhibition at 1 µM (YES): 8.8% | inhibition at 1 µM (CHEK1/CHK1): -34.8% | inhibition at 1 µM (CDC42BPB/MRCKB): -31% | inhibition at 1 µM (DAPK3): 25.9% | inhibition at 1 µM (MAP3K14): 10.5% | concentration at 1 h ([1]; brain, read-out: Mean [brain]): 16 ng/g | Kp at 1 h [1]: 0.4 | concentration at 1 h [1, 2]: 0.042 µg/mL

C=CC(=O)N1CCC[C@@H](c2c(F)cc(C(N)=O)c3[nH]c4c(c23)CCC4)C1 [Compound 10-2, (S)-8-(1-acryloylpiperidin-3-yl)-7-fluoro-1,2,3,4-tetrahydrocyclo-penta[b]indole-5-carboxamide]
inhibition at 1 µM (MYO3B): -11% | inhibition at 1 µM (YES): 23.9% | inhibition at 1 µM (CHEK1/CHK1): 6.8% | inhibition at 1 µM (CDC42BPB/MRCKB): -10.2% | inhibition at 1 µM (DAPK3): -4.9% | inhibition at 1 µM (MAP3K14): -0.2% | concentration at 1 h ([1]; brain, read-out: Mean [brain]): 72 ng/g | Kp at 1 h [1]: 0.37 | concentration at 1 h [1, 2]: 0.191 µg/mL

C=CC(=O)N1CCC[C@@H](c2c(F)cc(C(N)=O)c3[nH]c4c(c23)CC2(CC4)CC2)C1 [Compound 6-2, (S)-5-(1-acryloylpiperidin-3-yl)-6-fluoro-1,2,4,9-tetrahydrospiro[carbazole-3,1′-cyclopropane]-8-carboxamide]
inhibition at 1 µM (MYO3B): -16.5% | inhibition at 1 µM (YES): 27% | inhibition at 1 µM (CHEK1/CHK1): -23.1% | inhibition at 1 µM (CDC42BPB/MRCKB): -12.6% | inhibition at 1 µM (DAPK3): 10% | inhibition at 1 µM (MAP3K14): -11.5% | concentration at 1 h ([1]; brain, read-out: Mean [brain]): 18 ng/g | Kp at 1 h [1]: 0.24 | concentration at 1 h [1, 2]: 0.078 µg/mL
